Earlier results in patent US20230233480A1, “TRANSDERMAL THERAPEUTIC SYSTEM FOR THE TRANSDERMAL ADMINISTRATION OF FINGOLIMOD” (LTS LOHMANN THERAPIE-SYSTEME AG, priority 2019, published 2023).

Q: With CCCCCCCCc1ccc(CCC(N)(CO)CO)cc1 [fingolimod, 2-amino-2-[2-(4-octylphenyl)ethyl]propane-1,3-diol] as the molecule, how does the “ratio of Cmax fingolimod phosphate/Cmax fingolimod” value (humans at steady state after administration of 0.5 mg/day) read?
A: about 0.5

Q: And the “accumulation of blood levels from first dose to steady state” value (humans, once-daily dosing)?
A: ~11 fold
